In patent US10421754B2, “Quinazoline derivative” (CSPC ZHONGQI PHARMACEUTICAL TECHNOLOGY (SHIJIAZHUANG) CO., …, priority 2014, dated 2019):

Experiments:
[1] = tested on: HCC827; assay: In vitro cell experiment (MTT), HCC827; format: cell-based; details: 72 h, human non-small cell lung carcinoma (EGFR1 19 exon mutation)
Method: (§1) Cells in logarithmic growth phase were seeded at a certain density in a 96-well plate (200 μL/well). The cells were allowed to grow for 24 h and subsequently treated with different concentrations of drugs (including a blank group and a control group) and incubated for 72 h at 37° C. Each concentration in a given experiment was tested in triplicate. After 72 h of exposure, 20 μL of the MTT labeling reagent was added to the medium (the final concentration of MTT was 0.5 mg/mL), and the cells were incubated for additional 4 h at 37° C. Following this process, 180 μL of the medium was removed and 130 μL of DMSO was added to each well, or the medium was completely removed and 150 μL of DMSO was added to each well. Then the plate was shaken and mixed in a micro-oscillator. Finally the optical density (OD) of each sample was measured in a micro-plate reader at 550 nm. Cell inhibition rate was calculated according to the following formula: […]
(§2) According to cell inhibition rates, IC50 was calculated by LOGIT method. The experiments were repeated twice and the data was expressed as means±SD.

[2] = tested on: A431; assay: In vitro cell experiment (MTT), A431; format: cell-based; details: A-431, 72 h, human epidermoid carcinoma (EGFR1 overexpressing)
Method: as §1, §2

[3] = tested on: H292; assay: In vitro cell experiment (MTT), H292; format: cell-based; details: NCI-H292, 72 h, human lung carcinoma cells (EGFR1 overexpressing)
Method: as §1, §2

[4] = tested on: PC-9; assay: In vitro cell experiment (MTT), PC-9; format: cell-based; details: 72 h, human non-small-cell lung carcinoma cells (EGFR1 19 exon mutation)
Method: as §1, §2

[5] = tested on: A375; assay: In vitro cell experiment (MTT), A375; format: cell-based; details: A-375, 72 h, human melanoma cells (KDR expressing)
Method: as §1, §2

[6] = tested on: HT-29; assay: In vitro cell experiment (MTT), HT-29; format: cell-based; details: 72 h, human colon carcinoma cells (expressing both c-KIT and PDGFR)
Method: as §1, §2

[7] = tested on: TT; assay: In vitro cell experiment (MTT), TT; format: cell-based; details: 72 h, human thyroid carcinoma cells (RET C634W mutation)
Method: as §1, §2

[8] = tested on: HCT116; assay: In vitro cell experiment (MTT), HCT116; format: cell-based; details: HCT-116, 72 h, human colon carcinoma cells
Method: as §1, §2

[9] = tested on: SK-OV-3; assay: In vitro cell experiment (MTT), SK-OV-3; format: cell-based; details: 72 h, human ovarian carcinoma cells (EGFR2 overexpressing)
Method: as §1, §2

[10] = tested on: A549; assay: In vitro cell experiment (MTT), A549; format: cell-based; details: 72 h, human non-small-cell lung carcinoma cells (EGFR1 wildtype)
Method: as §1, §2

[11] = tested on: 3T3swiss; assay: In vitro cell experiment (MTT), 3T3swiss; format: cell-based; details: Fibroblast, 72 h, mouse fibroblasts (PDGFR overexpressing)
Method: as §1, §2

[12] = tested on: HUVEC; assay: In vitro cell experiment (MTT), HUVEC; format: cell-based; details: 72 h, human umbilical vein endothelial cell (KDR overexpressing)
Method: as §1, §2

[13] = tested on: Bel-7402; assay: In vitro cell experiment (MTT), Bel-7402; format: cell-based; details: 72 h, human hepatoma carcinoma cells
Method: as §1, §2

[14] = tested on: SGC7901; assay: In vitro cell experiment (MTT), SGC7901; format: cell-based; details: SGC-7901, 72 h, human gastric carcinoma cells
Method: as §1, §2

[15] = tested on: CFPAC-1; assay: In vitro cell experiment (MTT), CFPAC-1; format: cell-based; details: 72 h, human pancreatic carcinoma cells
Method: as §1, §2

[16] = tested on: A498; assay: In vitro cell experiment (MTT), A498; format: cell-based; details: 72 h, human renal carcinoma cells
Method: as §1, §2

[17] = tested on: Eca109; assay: In vitro cell experiment (MTT), Eca109; format: cell-based; details: ECa-109, 72 h, human esophageal carcinoma cells
Method: as §1, §2

[18] = biological target: RET (Homo sapiens, UniProt P07949); assay: In vitro enzyme experiment (ELISA), RET; format: biochemical; details: Poly (Glu, Tyr)4:1 substrate, 5 μM ATP
Sequence of RET (P07949 29-1114, species assumed): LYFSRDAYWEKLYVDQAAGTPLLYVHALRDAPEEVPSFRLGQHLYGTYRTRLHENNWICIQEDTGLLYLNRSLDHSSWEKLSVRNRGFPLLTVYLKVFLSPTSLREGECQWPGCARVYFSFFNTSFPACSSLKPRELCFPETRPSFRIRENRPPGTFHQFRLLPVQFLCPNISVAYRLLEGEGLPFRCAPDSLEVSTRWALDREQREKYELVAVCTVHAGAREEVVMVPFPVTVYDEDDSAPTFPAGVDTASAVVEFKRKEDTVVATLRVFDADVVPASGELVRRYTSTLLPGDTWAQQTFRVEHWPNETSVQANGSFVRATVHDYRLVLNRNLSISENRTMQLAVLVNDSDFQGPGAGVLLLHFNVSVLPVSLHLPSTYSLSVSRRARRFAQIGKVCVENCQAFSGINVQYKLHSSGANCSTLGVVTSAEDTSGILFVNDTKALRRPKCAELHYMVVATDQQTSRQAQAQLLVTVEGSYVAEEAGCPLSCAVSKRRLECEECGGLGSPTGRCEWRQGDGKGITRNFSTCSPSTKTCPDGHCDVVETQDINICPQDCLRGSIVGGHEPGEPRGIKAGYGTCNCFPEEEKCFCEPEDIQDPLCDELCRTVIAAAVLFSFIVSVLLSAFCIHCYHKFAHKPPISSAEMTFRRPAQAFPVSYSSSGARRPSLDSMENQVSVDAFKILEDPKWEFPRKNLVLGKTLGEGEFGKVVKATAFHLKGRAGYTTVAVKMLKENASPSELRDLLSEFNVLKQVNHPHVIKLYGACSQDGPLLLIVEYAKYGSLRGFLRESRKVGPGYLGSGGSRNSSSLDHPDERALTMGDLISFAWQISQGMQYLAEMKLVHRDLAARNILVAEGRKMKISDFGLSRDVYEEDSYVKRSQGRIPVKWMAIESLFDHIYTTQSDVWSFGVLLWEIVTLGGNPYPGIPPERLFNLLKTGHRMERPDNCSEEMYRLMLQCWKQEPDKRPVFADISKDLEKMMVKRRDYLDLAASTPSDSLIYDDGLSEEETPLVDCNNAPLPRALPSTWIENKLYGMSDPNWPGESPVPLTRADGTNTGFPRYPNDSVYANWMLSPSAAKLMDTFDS
Method: RET: A receptor involved in thyroid cancer
(§3) ELISA: The enzyme plate was coated by enzyme reaction substrate (Poly (Glu, Tyr)4:1) at a density of 20 μg/ml. Then the enzyme, the sample and 5 μM ATP were mixed in the well to react. After the reaction, the substrate phosphorylation was detected by anti-phosphotyrosine monoclonal antibody (4G10). In the next step, the goat-anti-mouse IgG linking with horse radish peroxidase (HRP) and tetramethylbenzidine (TMB) were added sequentially in the well to evaluate the level of substrate phosphorylation by the degree of color depth. In the experiment, a blank group without tyrosine kinase and a control group with the corresponding concentration of DMSO were established. Finally, 50 μL/well of H2SO4 at a concentration of 0.18M was added in each well to stop the reaction. The optical density (OD) of each sample was measured in a micro-plate reader at 450 nm.
(§4) The relative inhibition rate of the compound against tyrosine kinase protein was determined.
(§5) According to the inhibition rates at different concentrations, IC50 was calculated by LOGIT method. The experiments were repeated three times, and the average of three IC50 values was the final index to evaluate the ability of inhibition.

[19] = biological target: KDR (Homo sapiens, UniProt P35968); assay: In vitro enzyme experiment (ELISA), KDR; format: biochemical; details: Poly (Glu, Tyr)4:1 substrate, 5 μM ATP
Sequence of KDR (P35968 20-1356): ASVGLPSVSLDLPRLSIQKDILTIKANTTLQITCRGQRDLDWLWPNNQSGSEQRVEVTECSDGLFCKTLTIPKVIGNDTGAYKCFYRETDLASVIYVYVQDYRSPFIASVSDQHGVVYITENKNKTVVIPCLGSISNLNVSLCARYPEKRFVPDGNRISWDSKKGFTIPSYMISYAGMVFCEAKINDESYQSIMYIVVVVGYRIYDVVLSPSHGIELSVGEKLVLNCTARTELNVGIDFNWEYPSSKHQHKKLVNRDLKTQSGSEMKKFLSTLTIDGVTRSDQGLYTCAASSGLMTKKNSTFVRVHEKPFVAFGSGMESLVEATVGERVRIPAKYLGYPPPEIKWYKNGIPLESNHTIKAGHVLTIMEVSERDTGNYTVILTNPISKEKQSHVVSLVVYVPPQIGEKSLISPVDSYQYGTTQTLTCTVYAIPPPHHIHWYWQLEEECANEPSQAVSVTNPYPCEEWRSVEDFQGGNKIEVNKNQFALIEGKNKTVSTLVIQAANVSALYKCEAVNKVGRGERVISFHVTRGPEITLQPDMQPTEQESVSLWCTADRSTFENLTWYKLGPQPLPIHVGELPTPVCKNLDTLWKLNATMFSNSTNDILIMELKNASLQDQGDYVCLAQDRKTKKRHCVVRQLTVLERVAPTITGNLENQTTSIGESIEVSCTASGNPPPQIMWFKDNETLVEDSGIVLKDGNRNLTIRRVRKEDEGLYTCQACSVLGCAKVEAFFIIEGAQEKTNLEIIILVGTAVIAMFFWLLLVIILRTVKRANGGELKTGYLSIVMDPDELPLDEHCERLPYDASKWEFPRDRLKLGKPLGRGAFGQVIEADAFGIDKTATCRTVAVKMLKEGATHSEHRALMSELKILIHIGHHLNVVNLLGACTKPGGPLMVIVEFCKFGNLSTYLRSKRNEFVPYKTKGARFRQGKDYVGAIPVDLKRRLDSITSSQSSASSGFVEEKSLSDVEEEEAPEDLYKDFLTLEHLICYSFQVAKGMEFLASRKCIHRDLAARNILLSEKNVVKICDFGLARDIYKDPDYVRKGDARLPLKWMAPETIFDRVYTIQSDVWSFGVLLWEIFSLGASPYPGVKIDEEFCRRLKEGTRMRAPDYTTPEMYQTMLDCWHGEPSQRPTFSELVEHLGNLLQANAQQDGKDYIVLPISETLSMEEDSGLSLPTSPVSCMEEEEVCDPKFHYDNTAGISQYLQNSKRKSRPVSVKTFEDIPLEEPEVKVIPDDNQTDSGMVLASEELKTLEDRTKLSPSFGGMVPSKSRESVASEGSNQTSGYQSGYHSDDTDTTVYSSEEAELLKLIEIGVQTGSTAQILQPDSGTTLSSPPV
Method: KDR: Human vascular endothelial growth factor receptor 2
as §3, §4, §5

[20] = biological target: FLT-1 (Homo sapiens, UniProt P17948); assay: In vitro enzyme experiment (ELISA), FLT-1; format: biochemical; details: Poly (Glu, Tyr)4:1 substrate, 5 μM ATP
Method: FLT-1: Human vascular endothelial growth factor receptor 1
as §3, §4, §5

[21] = biological target: FGFR-1 (Homo sapiens, UniProt P11362); assay: In vitro enzyme experiment (ELISA), FGFR-1; format: biochemical; details: Poly (Glu, Tyr)4:1 substrate, 5 μM ATP
Method: FGFR-1: Fibroblast growth factor receptor 1
as §3, §4, §5

[22] = biological target: EGFR (Homo sapiens, UniProt P00533); assay: In vitro enzyme experiment (ELISA), EGFR; format: biochemical; details: Poly (Glu, Tyr)4:1 substrate, 5 μM ATP
Method: EGFR: Human epidermal growth factor receptor 1
as §3, §4, §5

[23] = biological target: PDGFRβ (Homo sapiens, UniProt P09619); assay: In vitro enzyme experiment (ELISA), PDGFRβ; format: biochemical; details: Poly (Glu, Tyr)4:1 substrate, 5 μM ATP
Sequence of PDGFRβ (P09619 33-1106, species assumed): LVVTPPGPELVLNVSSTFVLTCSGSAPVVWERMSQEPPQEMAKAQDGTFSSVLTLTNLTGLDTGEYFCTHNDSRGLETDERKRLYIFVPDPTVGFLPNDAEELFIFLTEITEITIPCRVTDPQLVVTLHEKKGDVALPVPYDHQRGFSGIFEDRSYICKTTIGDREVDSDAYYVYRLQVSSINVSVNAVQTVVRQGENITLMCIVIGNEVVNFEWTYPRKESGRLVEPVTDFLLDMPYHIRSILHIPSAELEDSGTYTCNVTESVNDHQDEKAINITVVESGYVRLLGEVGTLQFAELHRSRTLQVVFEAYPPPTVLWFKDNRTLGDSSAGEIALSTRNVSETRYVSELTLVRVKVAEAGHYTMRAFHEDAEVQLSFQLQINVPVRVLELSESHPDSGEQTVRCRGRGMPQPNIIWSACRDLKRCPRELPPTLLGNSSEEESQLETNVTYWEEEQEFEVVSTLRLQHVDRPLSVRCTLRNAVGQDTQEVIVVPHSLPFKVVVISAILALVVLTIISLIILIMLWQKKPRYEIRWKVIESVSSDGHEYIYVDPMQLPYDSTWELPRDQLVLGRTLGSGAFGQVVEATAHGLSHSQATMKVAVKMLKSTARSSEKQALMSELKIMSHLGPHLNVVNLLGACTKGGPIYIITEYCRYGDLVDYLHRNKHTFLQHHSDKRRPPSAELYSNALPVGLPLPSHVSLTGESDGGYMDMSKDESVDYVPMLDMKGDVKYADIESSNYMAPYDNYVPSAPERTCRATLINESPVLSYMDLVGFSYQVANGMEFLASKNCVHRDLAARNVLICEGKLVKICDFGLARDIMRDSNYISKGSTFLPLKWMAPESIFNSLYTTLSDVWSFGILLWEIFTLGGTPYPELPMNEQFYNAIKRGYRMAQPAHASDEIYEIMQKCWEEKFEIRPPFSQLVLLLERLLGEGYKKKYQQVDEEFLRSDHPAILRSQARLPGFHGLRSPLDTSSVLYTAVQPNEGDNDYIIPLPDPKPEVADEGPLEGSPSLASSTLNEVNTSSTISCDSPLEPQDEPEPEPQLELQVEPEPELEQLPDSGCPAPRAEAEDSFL
Method: PDGFRβ: Platelet-derived growth factor receptor β
as §3, §4, §5

[24] = biological target: BTK (Homo sapiens, UniProt Q06187); assay: In vitro enzyme experiment (ELISA), BTK; format: biochemical; details: Poly (Glu, Tyr)4:1 substrate, 5 μM ATP
Sequence of BTK (Q06187 whole entry, species assumed): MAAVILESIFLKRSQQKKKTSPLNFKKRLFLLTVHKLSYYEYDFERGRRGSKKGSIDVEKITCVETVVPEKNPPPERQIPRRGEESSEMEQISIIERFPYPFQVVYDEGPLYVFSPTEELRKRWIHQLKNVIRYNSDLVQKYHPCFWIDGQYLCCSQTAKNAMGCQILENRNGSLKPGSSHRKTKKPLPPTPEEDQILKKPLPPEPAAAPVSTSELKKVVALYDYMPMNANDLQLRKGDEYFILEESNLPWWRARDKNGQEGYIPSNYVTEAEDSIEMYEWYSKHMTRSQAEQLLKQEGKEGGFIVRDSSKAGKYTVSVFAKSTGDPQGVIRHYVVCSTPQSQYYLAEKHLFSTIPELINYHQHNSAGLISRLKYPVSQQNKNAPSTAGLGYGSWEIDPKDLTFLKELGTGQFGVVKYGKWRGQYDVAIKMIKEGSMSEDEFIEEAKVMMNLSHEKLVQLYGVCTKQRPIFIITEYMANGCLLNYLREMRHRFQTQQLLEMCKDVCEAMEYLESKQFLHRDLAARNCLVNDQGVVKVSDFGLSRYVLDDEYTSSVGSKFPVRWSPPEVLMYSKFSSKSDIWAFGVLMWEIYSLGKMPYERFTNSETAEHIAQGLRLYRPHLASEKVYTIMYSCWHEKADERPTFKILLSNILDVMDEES
Method: BTK: Bruton tyrosine kinase
as §3, §4, §5

[25] = biological target: AXL (Homo sapiens, UniProt P30530); assay: In vitro enzyme experiment (ELISA), AXL; format: biochemical; details: Poly (Glu, Tyr)4:1 substrate, 5 μM ATP
Sequence of AXL (P30530 473-894): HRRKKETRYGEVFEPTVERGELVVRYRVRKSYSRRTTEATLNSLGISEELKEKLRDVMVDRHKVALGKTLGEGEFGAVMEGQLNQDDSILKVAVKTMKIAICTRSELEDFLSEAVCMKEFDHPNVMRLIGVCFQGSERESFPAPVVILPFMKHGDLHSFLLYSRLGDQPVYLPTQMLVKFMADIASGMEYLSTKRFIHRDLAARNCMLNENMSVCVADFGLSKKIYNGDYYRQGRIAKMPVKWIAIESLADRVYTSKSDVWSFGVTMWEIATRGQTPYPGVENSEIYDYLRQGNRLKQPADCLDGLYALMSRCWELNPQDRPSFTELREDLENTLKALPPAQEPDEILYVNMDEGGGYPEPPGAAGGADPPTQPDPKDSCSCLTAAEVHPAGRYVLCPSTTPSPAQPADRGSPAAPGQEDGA
Method: as §3, with “AXL: Anaplastic lymphoma kinase Methods: ELISA:” for “ELISA:”, “nm. The relative inhibition rate of the compound against tyrosine kinase protein was determined. According to the inhibition rates at different concentrations, IC50 was calculated by LOGIT method. The experiments were repeated three times, and the average of three IC50 values was the final index to evaluate the ability of inhibition.” for “nm.”

[26] = Mouse maximum tolerated dose (MTD) experiment; details: in vivo, mice, oral, administered 7 days then observed 7 days
Method: In the mouse MTD experiment, the mice were administrated with the present compounds.
Healthy mice, having a small difference in body's weights, were chosen. The chosen mice were placed in different layers of cages according to their body's weights. In each layer, the mice were randomly divided into groups. In each group, there were three mice.
The administration dosages were 1000, 500, 250, 125, 62.5 and 31.25 mg/kg respectively and each two dosages differed by a factor of 2. For each of administration dosages, three mice were allotted. The mice were administrated with the present compounds for 7 days and then observed for the next 7 days without the present compounds.
The present compounds were orally administrated with the mice according to the administration dosage and the body weight.

| Structure (SMILES) | IC50 [1] | IC50 [2] | IC50 [3] | IC50 [4] | IC50 [5] | IC50 [6] | IC50 [7] | IC50 [8] | IC50 [9] | IC50 [10] | IC50 [11] | IC50 [12] | IC50 [13] | IC50 [14] | IC50 [15] | IC50 [16] | IC50 [17] | IC50 [18] | IC50 [19] | IC50 [20] | also measured |
| --- | --- | --- | --- | --- | --- | --- | --- | --- | --- | --- | --- | --- | --- | --- | --- | --- | --- | --- | --- | --- | --- |
| COc1cc2c(Nc3ccc(Br)cc3F)ncnc2cc1OCCCCN1CCCC1 [Compound 30, 4-(4-bromo-2-fluoroanilino)-6-methoxy-7-(4-(pyrrolidin-1-yl)butoxy)quinazoline] | 0.5 nM | 1570 nM | 43.2 nM | 7 nM | 196 nM | 2190 nM | 126 nM | 775 nM | 2500 nM | 1510 nM | 1490 nM | 27.5 nM | 4570 nM | 4190 nM | 5150 nM | 2880 nM | 5520 nM | 14.6 nM | 15.7 nM | 25.9 nM | IC50 [21]: 25.8 nM; IC50 [22]: 118 nM; IC50 [23]: 247 nM; IC50 [24]: 261 nM; IC50 [25]: 2010 nM; MTD [26]: 250 to 500 mg/kg |
| COc1cc2c(Nc3ccc(F)c(Cl)c3)ncnc2cc1OCCCCN(C)C [Compound 37, 4-(3-chloro-4-fluoroanilino)-6-methoxy-7-(4-(dimethylamino)-butoxy)quinazoline] | 0.6 nM | 1090 nM | 39.6 nM | 8.7 nM | 78.2 nM | 2500 nM | 134 nM | 562 nM | 2090 nM | 1770 nM | 1550 nM | 29.5 nM | 5590 nM | 4020 nM | 5860 nM | 2160 nM | 5750 nM | 15.8 nM | 15.9 nM | 30.4 nM | IC50 [21]: 27.7 nM; IC50 [22]: 98.5 nM; IC50 [23]: 189 nM; IC50 [24]: 312 nM; IC50 [25]: 1720 nM; MTD [26]: 250 to 500 mg/kg |
| COc1cc2c(Nc3ccc(F)c(Cl)c3)ncnc2cc1OCCCN(C)C [Compound 38, 4-(3-chloro-4-fluoroanilino)-6-methoxy-7-(3-(dimethylamino)-propoxy)quinazoline] | 0.7 nM | 1460 nM | 45.2 nM | 7.7 nM | 178 nM | 2660 nM | 115 nM | 621 nM | 2060 nM | 2360 nM | 1560 nM | 26.5 nM | 5940 nM | 3850 nM | 5790 nM | 2260 nM | 5930 nM | 19.8 nM | 17.6 nM | 35.6 nM | IC50 [21]: 28.9 nM; IC50 [22]: 101 nM; IC50 [23]: 268 nM; IC50 [24]: 325 nM; IC50 [25]: 2150 nM; MTD [26]: 125 to 250 mg/kg |
| COc1cc2c(Nc3ccc(F)c(Cl)c3)ncnc2cc1OCCCN1CCCC1 [Compound 39, 4-(3-chloro-4-fluoroanilino)-6-methoxy-7-(3-(pyrrolidin-1-yl)propoxy)quinazoline] | 0.2 nM | 2260 nM | 45.7 nM | 6.6 nM | 197 nM | 2870 nM | 186 nM | 510 nM | 1320 nM | 2660 nM | 1750 nM | 18.8 nM | 5660 nM | 4520 nM | 5250 nM | 2310 nM | 5750 nM | 10.2 nM | 18.9 nM | 34.6 nM | IC50 [21]: 19.6 nM; IC50 [22]: 121 nM; IC50 [23]: 258 nM; IC50 [24]: 297 nM; IC50 [25]: 2050 nM; MTD [26]: 62.5 to 125 mg/kg |
| COc1cc2c(Nc3ccc(F)c(Cl)c3)ncnc2cc1OCCCCN1CCCC1 [Compound 40, 4-(3-chloro-4-fluoroanilino)-6-methoxy-7-(4-(pyrrolidin-1-yl)butoxy)quinazoline] | 0.1 nM | 1560 nM | 56.4 nM | 7.8 nM | 247 nM | 2330 nM | 93 nM | 605 nM | 1190 nM | 2400 nM | 1810 nM | 12.4 nM | 5880 nM | 3690 nM | 5320 nM | 2460 nM | 5460 nM | 17.3 nM | 18.7 nM | 39.8 nM | IC50 [21]: 28.4 nM; IC50 [22]: 113 nM; IC50 [23]: 241 nM; IC50 [24]: 306 nM; IC50 [25]: 1990 nM; MTD [26]: 125 to 250 mg/kg |
